Results on 1 compound are retold here after PubChem BioAssay (NCI).

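Where inhibition never reached the appropriate level, the endpoint shown equals the highest concentration tested. Otherwise, values were interpolated linearly from a five-concentration, 48-hour dose response in 96-well plates. The concentration for 50% growth inhibition is given as GI50. TGI is the concentration that stops growth completely.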

Common to all, as to assay: inhibition of tumour cell growth, NCI panel, 48 h
The subject of assay [1] is ACHN renal.
Assay [2] relates to NCI/ADR-RES ovarian.
In assay [3] the test system is T-47D breast.
Assay [4] relates to PC-3 prostate.
For assay [5], the system named is SF-295 CNS.
In assay [6] the test system is DU-145 prostate.
The test system of assay [7] is M14 melanoma.
The test system of assay [8] is K-562 leukemia.
The test system of assay [9] is MALME-3M melanoma.
Assay [10] deals with CAKI-1 renal.

For the compound `Nc1ncnc2c1c(C(F)(F)F)cn2[C@@H]1O[C@H](CO)[C@@H](O)[C@H]1O`, the GI50 in assay [1] is 183 nM; in [2], 363 nM; in assay [3], 104 nM; in assay [4], 72.5 nM; in [5] it was 442 nM; in assay [6], 94.5 nM. Besides, the GI50 in assay [7] is 41.9 nM; in assay [8], 304 nM; in assay [9], 104 nM; in assay [10] it was 490 nM. Also, the TGI is greater than 100000 nM in assay [1]; greater than 100000 nM in assay [2]; 70800 nM in assay [3]; greater than 23300 nM in assay [5]; greater than 100000 nM in assay [6]; 1910 nM in [7]. Also, the TGI in assay [8] was 1410 nM; in assay [9], 2510 nM; in assay [10], greater than 100000 nM.
